The numbers were not newly measured in article PMC7559897, “Designed Antimicrobial Peptides Against Trauma-Related Cutaneous Invasive Fungal Wound Infections” (Journal of Fungi, 2020), which cites them from elsewhere.

For this data set, the system named is S. aureus. The settings on record: subinhibitory concentrations, growth at higher concentrations; cited from earlier work. The text has this:
The rapid destruction of pathogenic cells by dAMPs infers a theoretical reduced likelihood of developing bacterial resistance. However, to confirm this, dAMPs were serially passaged against Candida and against both P. aeruginosa and S. aureus at subinhibitory concentrations to ascertain whether resistance, assessed by growth at higher concentrations, occurs. Resistance was not observed.

As to `CCC[C@@H]1C[C@@H](C(=O)N[C@@H]([C@H]2O[C@H](SC)[C@H](O)[C@@H](O)[C@H]2O)[C@H](C)Cl)N(C)C1` [clindamycin], the “resistance during serial passaging against S. aureus” value was “strong resistance”.
